Measurements published in publication PMC11292009, “Mapping protein binding sites by photoreactive fragment pharmacophores” (Communications Chemistry, 2024).
Values joined by “and” are separate entries in the source; they are usually repeats but may differ in a detail not shown here. Equal entries are not always repeated.

Assays:
myoglobin (Myo) = experiment: Intact protein MS photoaffinity labeling screen, myoglobin; format: binding; conditions: intact protein MS after 10 min irradiation
Method in brief: (§1)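 Intact-protein mass spectrometry detected covalent adduct mass shifts, giving percent labeling per fragment. Beforehand, single fragments per well were pre-incubated 15 min with each benchmark protein ahead of photoactivation.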

STAT5B-NTD [1] = tested on: T1, STAT5B-NTD; experiment: Intact MS photoaffinity labeling screen, STAT5B-NTD (365 nm, UHPLC-MS); format: binding; conditions: for MS labeling percentage, STAT5B: STAT5B-NTD, 365 nm 10 min, no photocatalyst; for experimental hit status STAT5B-NTD: 0/1 flag;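 for MS labeling percentage, STAT5B: 0.17 µL of 100 mM DMSO fragment stock added to the protein sample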
T1 construct: His-SUMO (N, cleaved yes); made in house; host or cells: E. coli BL21 RILP
Method in brief: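 Intact-protein labeling detected by UHPLC-MS in positive ion mode over m/z 100–2000. Samples were first photo-crosslinked at 365 nm for 10 min at 4 °C. Before irradiation, 7 µM STAT5B in PBS pH 7.4 was pre-incubated with probe for 1 h in the dark at room temperature.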

STAT5B-NTD [2] = tested on: T1, STAT5B-NTD; experiment: Intact MS labeling screen, STAT5B-NTD conjugated with photocatalyst Ir-G2-PEG3-COOH (450 nm); format: binding; conditions: 450 nm 10 min;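 note: 0.14 µL of 100 mM DMSO fragment stock added to the conjugate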
Method in brief: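 Ir-G2-PEG3-COOH photocatalyst (10 eq) activated 30 min with EDC/NHS/BOP, then conjugated to STAT5B-NTD (7 µM) overnight at RT or 1 h at 37 °C in dark. PhP added, 1 h dark, then 450 nm irradiation 10 min at 4 °C; labeling read by intact LC-MS, positive ion mode, m/z 100–2000.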

lysozyme (Lyo) = experiment: Intact protein MS photoaffinity labeling screen, lysozyme; format: binding; conditions: intact protein MS after 10 min irradiation
Method in brief: as §1

[3] = tested on: carbonic anhydrase II (CA); experiment: Intact protein MS photoaffinity labeling screen, carbonic anhydrase; format: binding; conditions: intact protein MS after 10 min irradiation
Method in brief: as §1

[4] = tested on: CA, Lyo, Myo, BRD4-BD1, KRas G12D, STAT5B-NTD; experiment: Intact MS labeling compared over all protein targets; format: binding; conditions: for Labeling of the other protein targets (vs. preferred target): each of the other targets
Method: Using a plate-based format with one fragment per well, each fragment was incubated with the target proteins for 15 min to allow for the formation of non-covalent interactions. The plate was then irradiated at 302 or 365 nm for 10 min to enable the bound fragments to crosslink to the protein[26]. Finally, the results were directly analyzed from the plate using intact protein mass spectrometry by observing the mass additions that correspond to successful labeling (Fig. 2c, for labeling % values see Supplementary data). The library was first characterized against three benchmark proteins like carbonic anhydrase (CA), lysozyme (Lyo), and myoglobin (Myo).
The PhP library was screened against BRD4-BD1 and KRas^G12D as follows. Using a Labcyte Echo® 555 Liquid Handler, 150 nL of fragment solution (20 mM) was transferred into a Greiner 384 low-volume plate (white) to prepare the probe plate. The probe plate was placed on ice. 15 μL of protein stock solution (1 μM BRD4-BD1 (GSK/GenScript) or KRas^G12D (GSK/GenScript) in PBS buffer) was dispensed into wells containing fragments. The plate was left on ice for 15 min for incubation, then irradiated at 302 nm for 10 min, and centrifuged (1000 rpm, 1 min) to remove any bubbles. The plate was then analyzed by LCMS-TOF mass spectrometry (Agilent 1200 series liquid chromatography with Agilent Bio-HPLC PLRP-S (1000 Å, 5 µm × 50 mm × 1.0 mm, PL1312-1502) reverse phase HPLC column at 70 °C equipped with an Agilent G6224 time-of-flight (ToF), see Supplementary Note 2 for the full protocols). The deconvoluted spectra were analyzed using R Studio software.
During the analysis, the column temperature was maintained at a constant 60 °C, and a sample volume of 3 µL was injected for each analysis. Data acquisition was conducted in positive ion mode within the m/z 100–2000 (mass-to-charge ratio) range. For the full protocol and spectra of the hits, see Supplementary Note 2.

KRas^G12D = tested on: T2, KRas^G12D; experiment: Intact MS photoaffinity labeling screen, KRas G12D (302 nm, LCMS-TOF); format: binding; conditions: for MS labeling percentage, KRas: KRas G12D, 302 nm 10 min; for experimental hit status KRAS-G12D: 0/1 flag
T2 construct: purchased GSK/GenScript
Method in brief: (§2)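 Labeling detected as mass additions in deconvoluted intact-protein LCMS-TOF spectra. Protein at 1 μM in PBS was first mixed with one fragment per well on ice for 15 min, followed by 10 min UV exposure at 302 nm.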

BRD4-BD1 = tested on: T3, BRD4-BD1; experiment: Intact MS photoaffinity labeling screen, BRD4-BD1 (302 nm, LCMS-TOF); format: binding; conditions: for MS labeling percentage, BRD4: BRD4-BD1, 302 nm 10 min; for experimental hit status BRD4-BD1: 0/1 flag
T3 construct: screened the PhP library against the first bromodomain of BRD4 (BRD4-BD1); purchased GSK/GenScript
Method in brief: as §2

[5] = tested on: T4, Kras G12D protein / SOS1 exchange domain; experiment: Kras-SOS exchange assay (MANT-GDP); format: biochemical
T4 construct: Cytoskeleton, Inc. (SOS1 exchange domain only) GE02
Method: MANT-GDP loading assay: Kras^G12D protein was first buffer exchanged into low magnesium buffer (20 mM HEPES-NaOH (pH 7.5), 50 mM NaCl, 0.5 mM MgCl2) using a NAP5 column (catalog no.: 17-0583-1, Cytiva). The proteins were then incubated with 20-fold molar excess of N-methylanthraniloyl (MANT)-GDP (catalog no.: 69244, Sigma-Aldrich) in loading buffer (50 mM NaCl, 20 mM HEPES-NaOH [pH 7.5], 0.5 mM MgCl2, 10 mM EDTA, and 1 mM Dithiothreitol (DTT)) in a total volume of 200 μL at 20 °C for 90 min. The reaction was stopped by adding MgCl2 to a final concentration of 10 mM, then incubated at 20 °C for 30 min. The unbound MANT-GDP was removed using the NAP-5 column equilibrated with nucleotide exchange buffer (40 mM HEPES-NaOH (pH 7.5), 50 mM NaCl, 10 mM MgCl2, 2 mM DTT).
MANT-GDP exchange assay: First the MANT-GDP bound Kras G12D protein (in a final 1 μM molar concentration) was preincubated with the inhibitor molecules for 60 min. After the preincubation the samples were exposed to UV light for 10 min with a wavelength of 366 nm. The UV-treated MANT-GDP Kras-inhibitor mix was loaded into a black 384 well microplate. The nucleotide exchange reaction was initiated by adding 100 fold molar excess of GppNHp (catalog no.: G0635, Sigma-Aldrich), a non-hydrolyzable GTP analog and the SOS1 exchange domain (catalog no.: GE02, Cytoskeleton, Inc.) protein in 0.5 μM final concentration. The change in fluorescence intensity was measured every 30 s in room temperature for 60 min on an EnSpire plate reader (PerkinElmer, Inc.). The measured fluorescence values were fitted to a single exponential function by using GraphPad Prism 8 software.

[6] = hit flag 1/0, sheet PhP, photoaffinity labeling screen
[7] = PhP library sheet "PhP", binary flag printed as 0 or 1, key not given
[8] = hit status flag, 1 = hit, 0 = no hit
[9] = experimental hit status flag (0/1)
[10] = sheet PhP, experimental hit status flag given as 0 or 1

Structure (SMILES) | MS labeling percentage, Myo (myoglobin (Myo)) [%] | MS labeling percentage, STAT5B (STAT5B-NTD [1]) [%] | MS labeling percentage, STAT5B+photocat (STAT5B-NTD [2]) [%] | MS labeling percentage, Lyo (lysozyme (Lyo)) [%] | MS labeling percentage, CA [3] [%] | Labeling of the other protein targets (vs. preferred target) [4] | MS labeling percentage, KRas (KRas^G12D) [%] | MS labeling percentage, BRD4 (BRD4-BD1) [%] | Labeling efficiency over all protein targets (mean ± spread) [4] [%] | other results
CCN(CCCNC(=O)CCC1(C)N=N1)c1ccccc1 [PhP048, c1ccccc1N(CC)CCCNC(=O)CCC2(C)N=N2] | 0 | 2.9 | 3.2 | 2.1 | 0 | > 3% and < 3% | 29.4 | 0.4 |  | STAT5B-NTD (experimental hit status) (STAT5B-NTD [1]; [6]): 0; KRAS-G12D (experimental hit status) (KRas^G12D; [6]): 0; BRD4-BD1 (experimental hit status) (BRD4-BD1; [6]): 0
Cc1cccc(-c2cnc(CNC(=O)CCC3(C)N=N3)[nH]2)c1 [PhP037, Cc1cccc(c1)-c2cnc([nH]2)CNC(=O)CCC3(C)N=N3] | 1.4 | 2 | 1.5 | 0 | 0.9 |  | 11.2 | 4.8 | 3.4 ± 3.8 | experimental hit status STAT5B-NTD (STAT5B-NTD [1]): 0; experimental hit status KRAS-G12D (KRas^G12D): 0; experimental hit status BRD4-BD1 (BRD4-BD1): 0
CCCc1nn(C)c(C(N)=O)c1NC(=O)CCC1(C)N=N1 [PhP082, CCCc1nn(C)c(C(=O)N)c1NC(=O)CCC2(C)N=N2] | 52.9 | 0 | 2.4 | 0 | 0 | > 0.5% and < 0.5% | 0 | 0.2 |  | STAT5B-NTD (experimental hit status) (STAT5B-NTD [1]; [7]): 0; KRAS-G12D (experimental hit status) (KRas^G12D; [7]): 0; BRD4-BD1 (experimental hit status) (BRD4-BD1; [7]): 0
CC1(CCC(=O)NCc2ccc(CNC(=O)OC(C)(C)C)cc2)N=N1 [PhP099, CC(C)(C)OC(=O)NCc1ccc(cc1)CNC(=O)CCC2(C)N=N2] | 4.3 | 2.9 | 19.3 | 2.2 | 12.8 |  | 7.7 | 1.1 | 5.2 ± 4 | STAT5B-NTD (experimental hit status) (STAT5B-NTD [1]; [8]): 0; KRAS-G12D (experimental hit status) (KRas^G12D; [8]): 0; BRD4-BD1 (experimental hit status) (BRD4-BD1; [8]): 0
COc1ccc(OC)c(C(O)C(C)NC(=O)CCC2(C)N=N2)c1 (centres unmarked) [PhP038, COc1ccc(OC)c(c1)C(O)C(C)NC(=O)CCC2(C)N=N2] | 1.1 | 4.8 | 5.1 | 3.6 | 3.6 |  | 62.1 | 25.5 |  | STAT5B-NTD (experimental hit status) (STAT5B-NTD [1]; [6]): 0; Number of targets labeled in higher than 10% amount ([4]; of the six protein targets): two; KRAS-G12D (experimental hit status) (KRas^G12D; [6]): 0; BRD4-BD1 (experimental hit status) (BRD4-BD1; [6]): 0
Cn1ccnc1CCNC(=O)CCC1(C)N=N1 [PhP003, Cn1ccnc1CCNC(=O)CCC2(C)N=N2] | 0.2 | 0 | 0.8 | 0 | 4.7 | > 1.1% and < 1.1% | 0.8 | 1.1 |  | STAT5B-NTD (STAT5B-NTD [1]; [9]): 0; KRAS-G12D (KRas^G12D; [9]): 0; BRD4-BD1 (BRD4-BD1; [9]): 0
CC1(CCC(=O)NCCNS(=O)(=O)c2cccc([N+](=O)[O-])c2)N=N1 [PhP035, N1=NC1(C)CCC(=O)NCCNS(=O)(=O)c2cccc(c2)N(=O)=O] | 1.3 | 0 | 9.7 | 0.3 | 1.8 |  | 2 | 3.7 | 1.5 ± 1.2 | experimental hit status STAT5B-NTD (STAT5B-NTD [1]): 0; experimental hit status KRAS-G12D (KRas^G12D): 0; experimental hit status BRD4-BD1 (BRD4-BD1): 0
CC1(CCC(=O)Nc2ccc(-c3ncccc3O)cc2)N=N1 [PhP060, N1=NC1(C)CCC(=O)Nc2ccc(cc2)-c3ncccc3O] | 24.9 | 0 | 8.8 | 16.1 | 17.3 |  | 13.7 |  |  | STAT5B-NTD (experimental hit status) (STAT5B-NTD [1]; [10]): 0; Number of proteins labeled ([4]; of the six protein targets): four; KRAS-G12D (experimental hit status) (KRas^G12D; [10]): 1; Effect on SOS1-mediated nucleotide exchange of KRas ([5]; prior to irradiation): no effect; Effect on SOS1-mediated nucleotide exchange of KRas ([5]; upon irradiation (366 nm, 10 min)): no effect; BRD4-BD1 (experimental hit status) (BRD4-BD1; [10]): 0
